The source made the active and inactive calls. No cut-off for these calls is given here.
How the values were obtained:
[1] = Chemical stability of the compound in at pH 7.4 measured at 6 hrs by HPLC based non-enzymatic stability assay; format: physicochemical; settings: buffer, read-out: Stability
[2] = Chemical stability of the compound in at pH 7.4 measured at 72 hrs by HPLC based non-enzymatic stability assay; format: physicochemical; settings: buffer, read-out: Stability
HEK293 = assay: Cytotoxicity against human HEK293 cells assessed as cell viability at 50 uM incubated for 24 hrs by Alamar Blue reagent based assay relative to control; format: functional; settings: read-out: Activity
[3] = Chemical stability of the compound in at pH 7.4 measured at 48 hrs by HPLC based non-enzymatic stability assay; format: physicochemical; settings: buffer, read-out: Stability
[4] = Chemical stability of the compound in at pH 7.4 measured at 24 hrs by HPLC based non-enzymatic stability assay; format: physicochemical; settings: buffer, read-out: Stability
[5] = Chemical stability of the compound in at pH 7.4 measured at 12 hrs by HPLC based non-enzymatic stability assay; format: physicochemical; settings: buffer, read-out: Stability
[6] = biological target: Protein cereblon/Serine/threonine-protein kinase ATR (Homo sapiens) (UniProt Q13535+Q96SW2); assay: PROTAC activity at ATR/CRBN in patient derived human MIA PaCa-2 cells assessed as reduction in protein level at 2 uM measured after 24 hrs by immunoblot analysis relative to untreated control; format: cell-based; set-up: scale not given: the % may be the effect or the level left
Protein cereblon/Serine/threonine-protein kinase ATR (Homo sapiens), sequence (Q13535 whole entry, looked up): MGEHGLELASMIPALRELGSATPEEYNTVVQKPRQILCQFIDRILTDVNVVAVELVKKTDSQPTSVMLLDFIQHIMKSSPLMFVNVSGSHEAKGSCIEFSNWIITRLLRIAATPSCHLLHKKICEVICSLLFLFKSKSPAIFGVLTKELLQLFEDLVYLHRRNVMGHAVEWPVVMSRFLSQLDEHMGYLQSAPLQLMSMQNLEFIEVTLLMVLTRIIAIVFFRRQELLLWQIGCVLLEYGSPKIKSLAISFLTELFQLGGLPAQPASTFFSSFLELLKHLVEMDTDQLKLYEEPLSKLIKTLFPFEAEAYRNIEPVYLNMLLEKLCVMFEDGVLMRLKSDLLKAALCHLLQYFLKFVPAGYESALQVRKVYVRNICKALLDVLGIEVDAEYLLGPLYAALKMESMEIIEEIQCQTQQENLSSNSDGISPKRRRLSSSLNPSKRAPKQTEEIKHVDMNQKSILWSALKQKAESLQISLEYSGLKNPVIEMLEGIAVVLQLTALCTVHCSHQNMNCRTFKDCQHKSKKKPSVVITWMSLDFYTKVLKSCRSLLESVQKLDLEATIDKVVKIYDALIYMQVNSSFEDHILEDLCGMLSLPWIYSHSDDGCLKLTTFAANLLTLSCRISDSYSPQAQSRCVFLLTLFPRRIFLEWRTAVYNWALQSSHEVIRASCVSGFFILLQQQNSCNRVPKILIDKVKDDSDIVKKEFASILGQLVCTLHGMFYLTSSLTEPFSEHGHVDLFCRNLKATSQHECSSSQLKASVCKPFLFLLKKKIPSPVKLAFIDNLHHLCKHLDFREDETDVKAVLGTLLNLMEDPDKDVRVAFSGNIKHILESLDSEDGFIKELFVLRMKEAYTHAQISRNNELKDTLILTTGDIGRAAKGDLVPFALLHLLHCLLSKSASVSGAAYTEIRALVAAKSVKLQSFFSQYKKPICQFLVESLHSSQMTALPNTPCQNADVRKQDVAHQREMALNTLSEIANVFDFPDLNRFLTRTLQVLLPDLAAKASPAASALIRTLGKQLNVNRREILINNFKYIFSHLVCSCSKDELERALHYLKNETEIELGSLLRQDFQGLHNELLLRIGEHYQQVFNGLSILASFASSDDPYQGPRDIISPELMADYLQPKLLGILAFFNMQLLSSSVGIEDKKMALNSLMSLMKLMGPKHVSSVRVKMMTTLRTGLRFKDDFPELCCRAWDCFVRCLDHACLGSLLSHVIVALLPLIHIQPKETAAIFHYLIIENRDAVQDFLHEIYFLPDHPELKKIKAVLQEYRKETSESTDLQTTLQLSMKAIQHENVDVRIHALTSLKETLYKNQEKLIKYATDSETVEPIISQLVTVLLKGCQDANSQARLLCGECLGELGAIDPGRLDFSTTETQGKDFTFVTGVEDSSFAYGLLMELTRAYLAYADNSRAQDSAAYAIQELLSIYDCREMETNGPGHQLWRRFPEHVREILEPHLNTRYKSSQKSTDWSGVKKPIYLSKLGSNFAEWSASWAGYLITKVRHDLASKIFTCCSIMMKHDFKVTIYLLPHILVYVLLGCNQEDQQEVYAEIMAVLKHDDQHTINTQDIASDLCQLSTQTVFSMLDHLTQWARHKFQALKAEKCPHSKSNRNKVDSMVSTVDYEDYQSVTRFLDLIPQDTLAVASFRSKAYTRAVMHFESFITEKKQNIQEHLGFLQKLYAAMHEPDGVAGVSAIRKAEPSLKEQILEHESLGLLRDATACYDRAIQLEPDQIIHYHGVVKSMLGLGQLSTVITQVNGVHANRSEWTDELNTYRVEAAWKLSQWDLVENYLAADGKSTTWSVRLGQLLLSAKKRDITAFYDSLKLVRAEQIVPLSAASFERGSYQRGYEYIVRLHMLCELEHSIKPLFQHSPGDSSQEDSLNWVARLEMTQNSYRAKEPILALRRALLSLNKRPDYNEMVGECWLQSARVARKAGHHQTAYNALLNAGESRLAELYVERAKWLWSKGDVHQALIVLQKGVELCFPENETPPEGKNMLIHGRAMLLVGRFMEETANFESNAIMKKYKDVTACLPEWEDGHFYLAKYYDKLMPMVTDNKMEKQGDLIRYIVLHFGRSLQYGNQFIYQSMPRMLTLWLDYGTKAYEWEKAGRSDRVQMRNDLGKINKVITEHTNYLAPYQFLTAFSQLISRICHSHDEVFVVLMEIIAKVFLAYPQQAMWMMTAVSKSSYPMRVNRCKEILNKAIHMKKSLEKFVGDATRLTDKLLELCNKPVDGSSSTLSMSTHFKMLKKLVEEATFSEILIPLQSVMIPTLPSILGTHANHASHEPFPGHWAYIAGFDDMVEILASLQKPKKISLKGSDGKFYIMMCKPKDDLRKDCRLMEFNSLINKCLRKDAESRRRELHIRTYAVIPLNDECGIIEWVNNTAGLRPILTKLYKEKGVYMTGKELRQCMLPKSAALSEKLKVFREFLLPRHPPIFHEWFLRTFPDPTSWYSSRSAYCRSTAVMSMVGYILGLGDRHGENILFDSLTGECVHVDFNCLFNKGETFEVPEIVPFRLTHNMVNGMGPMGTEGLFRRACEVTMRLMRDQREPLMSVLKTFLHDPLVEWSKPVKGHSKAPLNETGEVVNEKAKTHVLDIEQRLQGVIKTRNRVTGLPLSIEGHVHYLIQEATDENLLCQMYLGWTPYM
Protein cereblon/Serine/threonine-protein kinase ATR (Homo sapiens), sequence (Q96SW2 whole entry, looked up): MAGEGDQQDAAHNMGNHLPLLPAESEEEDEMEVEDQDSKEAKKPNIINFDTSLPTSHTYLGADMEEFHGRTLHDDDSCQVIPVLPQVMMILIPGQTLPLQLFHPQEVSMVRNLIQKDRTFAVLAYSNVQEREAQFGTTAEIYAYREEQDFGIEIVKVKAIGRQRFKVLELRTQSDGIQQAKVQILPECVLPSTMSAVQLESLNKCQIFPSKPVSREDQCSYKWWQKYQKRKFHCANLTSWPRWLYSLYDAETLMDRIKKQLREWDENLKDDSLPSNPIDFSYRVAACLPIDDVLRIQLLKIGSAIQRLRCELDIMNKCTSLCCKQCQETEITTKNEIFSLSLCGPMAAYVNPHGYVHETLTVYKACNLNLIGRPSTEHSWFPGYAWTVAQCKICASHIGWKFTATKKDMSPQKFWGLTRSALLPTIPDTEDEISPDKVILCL

Structure (SMILES)	remaining at 6 h [1]	remaining at 72 h [2]	remaining at 48 h [3]	remaining at 24 h [4]	remaining at 12 h [5]	Activity [6]	viability at 50 µM (HEK293)
Nc1ncc(-c2ccc(S(=O)(=O)NCCCCCCC(=O)N3CCN(c4ccc5c(c4)C(=O)N(C4CCC(=O)NC4=O)C5=O)CC3)cc2)nc1C(=O)Nc1ccccc1 (stereo not drawn)	97%	70%	78%	88%	92%	–	93.2%
Cc1ncsc1-c1ccc(CNC(=O)[C@@H]2C[C@@H](O)CN2C(=O)[C@@H](NC(=O)CCCCNS(=O)(=O)c2ccc(-c3cnc(N)c(-c4nnc(-c5ccccc5)o4)n3)cc2)C(C)(C)C)cc1	100%	104%	103%	102%	100%	–	91.1%
Nc1ncc(-c2ccc(S(=O)(=O)NCCOCCOCCOCCC(=O)N3CCN(c4ccc5c(c4)C(=O)N(C4CCC(=O)NC4=O)C5=O)CC3)cc2)nc1C(=O)Nc1ccccc1 (stereo not drawn)	101%	74%	83%	97%	100%	inactive	75%
Cc1ncsc1-c1ccc(CNC(=O)[C@@H]2C[C@@H](O)CN2C(=O)[C@@H](NC(=O)CCCCCNS(=O)(=O)c2ccc(-c3cnc(N)c(-c4nnc(-c5ccccc5)o4)n3)cc2)C(C)(C)C)cc1	100%	104%	103%	102%	100%	–	79.8%
CNCc1ccc(-c2nnc(-c3nc(-c4ccc(S(=O)(=O)NCCCCC(=O)N5CCN(c6ccc7c(c6)C(=O)N(C6CCC(=O)NC6=O)C7=O)CC5)cc4)cnc3N)o2)cc1 (stereo not drawn)	97%	74%	83%	91%	99%	–	104%
CNCc1ccc(-c2nnc(-c3nc(-c4ccc(S(=O)(=O)NCCCCCC(=O)N[C@H](C(=O)N5C[C@H](O)C[C@H]5C(=O)NCc5ccc(-c6scnc6C)cc5)C(C)(C)C)cc4)cnc3N)o2)cc1	101%	99%	99%	101%	100%	–	81.8%
CNCc1ccc(-c2nnc(-c3nc(-c4ccc(S(=O)(=O)NCCCCCCC(=O)N5CCN(c6ccc7c(c6)C(=O)N(C6CCC(=O)NC6=O)C7=O)CC5)cc4)cnc3N)o2)cc1 (stereo not drawn)	97%	72%	79%	91%	95%	–	95.7%
Nc1ncc(-c2ccc(S(=O)(=O)NCCCCC(=O)N3CCN(c4ccc5c(c4)C(=O)N(C4CCC(=O)NC4=O)C5=O)CC3)cc2)nc1-c1nnc(-c2ccccc2)o1 (stereo not drawn)	99%	77%	85%	91%	95%	–	97.6%

Second part, led by results:

remaining at 6 h [1]	remaining at 72 h [2]	remaining at 48 h [3]	remaining at 24 h [4]	remaining at 12 h [5]	Activity [6]	Structure (SMILES)	viability at 50 µM (HEK293)
101%	101%	100%	101%	101%	> 20%	CNCc1ccc(-c2nnc(-c3nc(-c4ccc(S(=O)(=O)NCCCCCCC(=O)NCC#Cc5cccc6c5CN(C5CCC(=O)NC5=O)C6=O)cc4)cnc3N)o2)cc1 (stereo not drawn)	89.5%
100%	47%	77%	98%	100%	–	Nc1ncc(-c2ccc(S(=O)(=O)NCCCCCCCC(=O)NCC#Cc3cccc4c3CN(C3CCC(=O)NC3=O)C4=O)cc2)nc1C(=O)Nc1ccccc1 (stereo not drawn)	94.2%
102%	103%	103%	102%	102%	–	Nc1ncc(-c2ccc(S(=O)(=O)NCCCCC(=O)NCCCC#Cc3cccc4c3CN(C3CCC(=O)NC3=O)C4=O)cc2)nc1C(=O)Nc1ccccc1 (stereo not drawn)	104%
